Experimental data as given in PubChem BioAssay AID328 (DTP/NCI, 2004).
Several values for one entry are separate records, joined by “and”; a condition that tells them apart may be missing. Identical values can stand only once. Toxic doses and inconclusive results are not listed. How the source made its calls: active means survival T/C of 150% or more; inactive means T/C below 125% in these data.

System: BDF1 mice, P388 leukemia ip, median survival T/C
Experiment: NCI In Vivo Anticancer Drug Screen. Data for tumor model P388 Leukemia (intraperitoneal) in B6D2F1 (BDF1) mice
Settings: endpoint: median survival time, higher = longer survival
In short: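 Vehicle-dosed animals serve as the reference; survival of compound-dosed, tumour-implanted mice is divided by it.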

[1] = dose: 100.0 mg/kg/injection, schedule: Q04DX003 (ip), vehicle: Klucel (hydroxypropylcellulose) (HPC)
[2] = dose: 200.0 mg/kg/injection, schedule: Q04DX003 (ip), vehicle: Klucel (hydroxypropylcellulose) (HPC)
[3] = dose: 400.0 mg/kg/injection, schedule: Q04DX003 (ip), vehicle: Klucel (hydroxypropylcellulose) (HPC)
[4] = dose: 50.0 mg/kg/injection, schedule: Q01DX009 (ip), vehicle: saline with Tween-80
[5] = dose: 100.0 mg/kg/injection, schedule: Q01DX009 (ip), vehicle: Klucel (hydroxypropylcellulose) (HPC)
[6] = dose: 200.0 mg/kg/injection, schedule: Q01DX009 (ip), vehicle: Klucel (hydroxypropylcellulose) (HPC)
[7] = dose: 100.0 mg/kg/injection, schedule: Q01DX009 (ip), vehicle: saline with Tween-80
[8] = dose: 200.0 mg/kg/injection, schedule: Q01DX009 (ip), vehicle: saline with Tween-80

Measured: T/C

O=[N+]([O-])c1cc([N+](=O)[O-])c(NN(c2ccccc2)c2cccc3ccccc23)c([N+](=O)[O-])c1
inactive: [1] 91 % of control | [2] 116 % of control | [3] 87 % of control

CCN(CC)c1ccc([N+](=O)[O-])c2no[n+]([O-])c12
inactive: dose: 35.0 mg/kg/injection, schedule: Q01DX009 (ip), vehicle: saline with Tween-80 91 % of control | dose: 70.0 mg/kg/injection, schedule: Q01DX009 (ip), vehicle: saline with Tween-80 94 % of control

NC(=O)C1CCCC12NC(=O)NC2=O (configuration not stated)
inactive: [1] 109 % of control | [2] 100 % of control | [3] 95 % of control

Nc1nc(N)c2cc(Sc3cccc(C(F)(F)F)c3)ccc2n1
inactive: [4] 113 % of control

CCCCCCCCCCCCC1CC(=O)OC1=O (configuration not stated)
inactive: dose: 75.0 mg/kg/injection, schedule: Q01DX009 (ip), vehicle: Klucel (hydroxypropylcellulose) (HPC) 90 % of control | [1] 104 % of control | dose: 100.0 mg/kg/injection, schedule: Q04DX003 (ip), vehicle: saline 108 % of control | dose: 150.0 mg/kg/injection, schedule: Q01DX009 (ip), vehicle: Klucel (hydroxypropylcellulose) (HPC) 90 % of control | [2] 109 % of control | dose: 300.0 mg/kg/injection, schedule: Q01DX009 (ip), vehicle: Klucel (hydroxypropylcellulose) (HPC) 109 % of control | [3] 100 % of control | dose: 400.0 mg/kg/injection, schedule: Q04DX003 (ip), vehicle: saline 120 % of control

CCCCNC(C)(C)C(SS)c1ccc(Cl)cc1 (configuration not stated)
inactive: dose: 50.0 mg/kg/injection, schedule: Q01DX009 (ip), vehicle: Klucel (hydroxypropylcellulose) (HPC) 100 % of control | [5] 115 % of control | [1] 95 % of control | [6] 105 % of control | [2] 100 % of control

[Cl][Co][Cl].[NH-]CCC[NH-].[NH-]CCC[NH-]
inactive: dose: 25.0 mg/kg/injection, schedule: Q04DX003 (ip), vehicle: saline 105 % of control | dose: 50.0 mg/kg/injection, schedule: Q04DX003 (ip), vehicle: saline 110 % of control

COc1cc(C(=O)N(CCCl)N=O)cc(OC)c1OC
inactive: dose: 25.0 mg/kg/injection, schedule: Q04DX003 (ip), vehicle: saline with Tween-80 100 % of control | [4] 100 % of control | dose: 50.0 mg/kg/injection, schedule: Q04DX003 (ip), vehicle: saline with Tween-80 100 % of control | [7] 100 % of control | dose: 100.0 mg/kg/injection, schedule: Q04DX003 (ip), vehicle: saline with Tween-80 100 % of control and 109 % of control | [8] 100 % of control | dose: 200.0 mg/kg/injection, schedule: Q04DX003 (ip), vehicle: saline with Tween-80 100 % of control | dose: 400.0 mg/kg/injection, schedule: Q04DX003 (ip), vehicle: saline with Tween-80 109 % of control

CC(CCCC1SCC2NC(=O)NC21)C(=O)O (configuration not stated)
inactive: [5] 102 % of control | [6] 91 % of control | dose: 400.0 mg/kg/injection, schedule: Q01DX009 (ip), vehicle: Klucel (hydroxypropylcellulose) (HPC) 98 % of control

Nc1ccc(CCCCc2ccccc2)cc1
inactive: dose: 7.03 mg/kg/injection, schedule: Q04DX003 (ip), vehicle: saline 104 % of control | dose: 12.5 mg/kg/injection, schedule: Q01DX009 (ip), vehicle: saline 109 % of control | dose: 14.06 mg/kg/injection, schedule: Q04DX003 (ip), vehicle: saline 113 % of control | dose: 25.0 mg/kg/injection, schedule: Q01DX009 (ip), vehicle: saline 113 % of control | dose: 28.12 mg/kg/injection, schedule: Q04DX003 (ip), vehicle: saline 109 % of control | dose: 50.0 mg/kg/injection, schedule: Q01DX009 (ip), vehicle: saline 113 % of control | dose: 56.25 mg/kg/injection, schedule: Q04DX003 (ip), vehicle: saline 116 % of control | dose: 75.0 mg/kg/injection, schedule: Q01DX009 (ip), vehicle: saline 109 % of control

Cc1ccc(Nc2c3ccccc3nc3ccccc23)cc1
inactive: dose: 100.0 mg/kg/injection, schedule: Q01DX001 (ip), vehicle: Klucel (hydroxypropylcellulose) (HPC) 109 % of control | dose: 200.0 mg/kg/injection, schedule: Q01DX001 (ip), vehicle: Klucel (hydroxypropylcellulose) (HPC) 118 % of control | dose: 400.0 mg/kg/injection, schedule: Q01DX001 (ip), vehicle: Klucel (hydroxypropylcellulose) (HPC) 113 % of control

O=C(O)/C(=C\c1ccncc1)c1cccc2ccccc12
inactive: dose: 50.0 mg/kg/injection, schedule: Q04DX003 (ip), vehicle: Klucel (hydroxypropylcellulose) (HPC) 100 % of control | [1] 100 % of control | [2] 100 % of control

O=S1(=O)C(C(O)(c2ccccc2)c2ccccc2)CCCN1c1ccccc1 (configuration not stated)
inactive: [4] 100 % of control | [7] 91 % of control | [8] 97 % of control
